Measured values reported in the supplement of paper PMC11061612.

Legend:
Assay in all cases: combination Emax (second highest fraction inhibited in the dose matrix, 72 h); higher = more inhibition; extreme values may be limits of the assay
[1] = system: C-33-A (Cervical Carcinoma)
Method in brief: (§1)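 Cell lines grown in DMEM/F12 or RPMI with 10% FBS were plated in 1536-well plates and held 24 hours at 37°C, 5% CO2 before 72 hours of exposure to two-drug dose matrices, with DMSO typically at 0.2%. CellTiter-Glo 2.0 luminescence gave viability, which was converted to inhibition. Vehicle wells were set to 0 and blank wells to 1. Combination Emax is the second-highest inhibition in the matrix, and Bliss excess is the observed combination effect minus the expected EA + EB − EA·EB, where EA and EB are the single-agent effects.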

[2] = system: CL-11 (Colorectal Carcinoma)
Method in brief: as §1

[3] = system: COR-L88 (Small Cell Lung Carcinoma)
Method in brief: as §1

GAK (Melanoma) = system: GAK (Melanoma)
Method in brief: as §1

[4] = system: HT-1080 (Other Solid Carcinomas)
Method in brief: as §1

IST-MEL1 (Melanoma) = system: IST-MEL1 (Melanoma)
Method in brief: as §1

KALS-1 (Glioblastoma) = system: KALS-1 (Glioblastoma)
Method in brief: as §1

[5] = system: KP-4 (Pancreatic Carcinoma)
Method in brief: as §1

[6] = system: MOLP-8 (Plasma Cell Myeloma)
Method in brief: as §1

[7] = system: MOLT-13 (T-Lymphoblastic Leukemia)
Method in brief: as §1

[8] = system: MS-1 (Small Cell Lung Carcinoma)
Method in brief: as §1

[9] = system: NCI-H1341 (Small Cell Lung Carcinoma)
Method in brief: as §1

NCI-H226 (Mesothelioma) = system: NCI-H226 (Mesothelioma)
Method in brief: as §1

[10] = system: NCI-H3118 (Head and Neck Carcinoma)
Method in brief: as §1

[11] = system: NMC-G1 (Low Grade Glioma)
Method in brief: as §1

[12] = system: PL4 (Pancreatic Carcinoma)
Method in brief: as §1

[13] = system: SAT (Head and Neck Carcinoma)
Method in brief: as §1

[14] = system: SK-CO-1 (Colorectal Carcinoma)
Method in brief: as §1

[15] = system: SKG-IIIa (Cervical Carcinoma)
Method in brief: as §1

[16] = system: SiHa (Cervical Carcinoma)
Method in brief: as §1

Compound | combination Emax [1] | combination Emax [2] | combination Emax [3] | combination Emax (GAK (Melanoma)) | combination Emax [4] | combination Emax (IST-MEL1 (Melanoma)) | combination Emax (KALS-1 (Glioblastoma)) | combination Emax [5] | combination Emax [6] | combination Emax [7] | combination Emax [8] | combination Emax [9] | combination Emax (NCI-H226 (Mesothelioma)) | combination Emax [10] | combination Emax [11] | combination Emax [12] | combination Emax [13] | combination Emax [14] | combination Emax [15] | combination Emax [16]
COc1cccc(OCCCN)c1-c1cc(Nc2cnc(C#N)cn2)n[nH]1 [Prexasertib] + Cc1cc2ncnn2cc1Nc1ncc2c(n1)n(C1CCOCC1)c(=O)n2C [AZD7648] (first compound max 1 µM, 7x7, partner max 10 µM) | 0.882 | 0.788 | 0.823 | 0.708 | 0.557 | 0.772 | 0.866 | 0.429 | 0.897 | 1 | 0.971 | 0.919 | 0.209 | 0.819 | 0.327 | 0.836 | 0.573 | 0.593 | 0.389 | 0.386
COc1cccc(OCCCN)c1-c1cc(Nc2cnc(C#N)cn2)n[nH]1 [Prexasertib] + O=C(c1cc(Cc2n[nH]c(=O)c3ccccc23)ccc1F)N1CCN(C(=O)C2CC2)CC1 [Olaparib] (first compound max 1 µM, 7x7, partner max 10 µM) | 0.819 | 0.77 | 0.609 | 0.668 | 0.542 | 0.706 | 0.785 | 0.641 | 0.882 | 1 | 0.896 | 0.884 | 0.275 | 0.837 | 0.371 | 0.812 | 0.595 | 0.643 | 0.373 | 0.404
COc1cc2c(cc1OCCCCCOc1cc3c(cc1OC)C(=O)N1C=C(C)C[C@H]1C=N3)N=C[C@@H]1CC(C)=CN1C2=O [SG3199] + O=C(c1cc(Cc2n[nH]c(=O)c3ccccc23)ccc1F)N1CCN(C(=O)C2CC2)CC1 [Olaparib] (first compound max 0.001 µM, 7x7, partner max 10 µM) | 0.189 | 0.111 | 0.237 | 0.106 | 0.12 | 0.181 | 0.163 | 0.0915 | 0.233 | 0.226 | 0.379 | 0.193 | 0.0668 | 0.118 | 0.183 | 0.204 | 0.17 | 0.46 | 0.144 | 0.0997
CCc1c2c(nc3ccc(O)cc13)-c1cc3c(c(=O)n1C2)COC(=O)[C@]3(O)CC [SN-38] + CN(C)CCCOc1ccc(-c2ccc3ncc4c(c3c2)n(C2CCOCC2)c(=O)n4C)cn1 [AZD0156] (first compound max 0.3 µM, 7x7, partner max 1 µM) | 0.802 | 0.764 | 0.472 | 0.477 | 0.374 | 0.864 | 0.596 | 0.817 | 0.78 | 1 | 0.63 | 0.955 | 0.337 | 0.402 | 0.24 | 0.828 | 0.344 | 0.887 | 0.42 | 0.235
CCc1c2c(nc3ccc(O)cc13)-c1cc3c(c(=O)n1C2)COC(=O)[C@]3(O)CC [SN-38] + O=C(c1cc(Cc2n[nH]c(=O)c3ccccc23)ccc1F)N1CCN(C(=O)C2CC2)CC1 [Olaparib] (first compound max 0.3 µM, 7x7, partner max 10 µM) | 0.747 | 0.776 | 0.535 | 0.472 | 0.489 | 0.897 | 0.616 | 0.817 | 0.783 | 1 | 0.724 | 0.99 | 0.168 | 0.396 | 0.246 | 0.903 | 0.418 | 0.798 | 0.389 | 0.32
CC(=O)Nc1cccc(-n2c(=O)n(C3CC3)c(=O)c3c(Nc4ccc(I)cc4F)n(C)c(=O)c(C)c32)c1 [Trametinib] + Cc1nc(-c2cn3c(n2)-c2ccc(-c4cnn(C(C)(C)C(N)=O)c4)cc2OCC3)n(C(C)C)n1 [Taselisib] (first compound max 1 µM, 7x7, partner max 10 µM) | 0.669 | 0.989 | 0.154 | 0.985 | 0.628 | 0.932 | 0.951 | 0.694 | 1 | 0.698 | 0.513 | 0.927 | 0.327 | 0.966 | 0.488 | 0.951 | 0.941 | 1 | 0.527 | 0.302
CC1(C)CCC(CN2CCN(c3ccc(C(=O)NS(=O)(=O)c4ccc(NCC5CCOCC5)c([N+](=O)[O-])c4)c(Oc4cnc5[nH]ccc5c4)c3)CC2)=C(c2ccc(Cl)cc2)C1 [Venetoclax] + C1CN(CCC1(C(=O)N[C@@H](CCO)C2=CC=C(C=C2)Cl)N)C3=NC=NC4=C3C=CN4 [Capivasertib] (first compound max 1 µM, 7x7, partner max 3 µM) | 0.547 | 0.162 | 0.557 | 0.152 | 0.127 | 0.36 | 0.714 | 0.0982 | 0.385 | 0.566 | 0.36 | 0.551 | 0.241 | 0.169 | 0.111 | 0.197 | 0.377 | 0.187 | 0.224 | 0.282
CC1(C)CCC(CN2CCN(c3ccc(C(=O)NS(=O)(=O)c4ccc(NCC5CCOCC5)c([N+](=O)[O-])c4)c(Oc4cnc5[nH]ccc5c4)c3)CC2)=C(c2ccc(Cl)cc2)C1 [Venetoclax] + C=CCn1c(=O)c2cnc(Nc3ccc(N4CCN(C)CC4)cc3)nc2n1-c1cccc(C(C)(C)O)n1 [AZD1775] (first compound max 1 µM, partner max 1 µM) | 0.961 | 0.502 | 0.939 | 0.792 | 0.349 | 0.799 | 0.93 | 0.56 | 0.75 | 1 | 0.939 | 0.808 | 0.268 | 0.836 | 0.394 | 0.551 | 0.545 | 0.569 | 0.271 | 0.223
CC1(C)CCC(CN2CCN(c3ccc(C(=O)NS(=O)(=O)c4ccc(NCC5CCOCC5)c([N+](=O)[O-])c4)c(Oc4cnc5[nH]ccc5c4)c3)CC2)=C(c2ccc(Cl)cc2)C1 [Venetoclax] + CCN(CCO)CCCOc1ccc2c(Nc3cc(CC(=O)Nc4cccc(F)c4)[nH]n3)ncnc2c1 [AZD2811] (first compound max 1 µM, 7x7, partner max 1 µM) | 0.312 | 0.267 | 0.667 | 0.242 | 0.27 | 0.504 | 0.661 | 0.322 | 0.406 | 1 | 0.34 | 0.495 | 0.158 | 0.207 | 0.229 | 0.248 | 0.187 | 0.583 | 0.229 | 0.172
CC1(C)CCC(CN2CCN(c3ccc(C(=O)NS(=O)(=O)c4ccc(NCC5CCOCC5)c([N+](=O)[O-])c4)c(Oc4cnc5[nH]ccc5c4)c3)CC2)=C(c2ccc(Cl)cc2)C1 [Venetoclax] + CN(C)CCCOc1ccc(-c2ccc3ncc4c(c3c2)n(C2CCOCC2)c(=O)n4C)cn1 [AZD0156] (first compound max 1 µM, 7x7, partner max 1 µM) | 0.494 | 0.11 | 0.525 | 0.293 | 0.105 | 0.42 | 0.646 | 0.21 | 0.169 | 0.718 | 0.445 | 0.361 | 0.212 | 0.181 | 0.192 | 0.248 | 0.204 | 0.271 | 0.219 | 0.152
CC1(C)CCC(CN2CCN(c3ccc(C(=O)NS(=O)(=O)c4ccc(NCC5CCOCC5)c([N+](=O)[O-])c4)c(Oc4cnc5[nH]ccc5c4)c3)CC2)=C(c2ccc(Cl)cc2)C1 [Venetoclax] + COc1cc(Nc2ncc3c(n2)-c2ccc(Cl)cc2C(c2c(F)cccc2OC)=NC3)ccc1C(=O)O [Alisertib] (first compound max 1 µM, 7x7, partner max 10 µM) | 0.446 | 0.673 | 0.727 | 0.147 | 0.299 | 0.574 | 0.647 | 0.44 | 0.633 | 0.896 | 0.392 | 0.968 | 0.224 | 0.312 | 0.244 | 0.448 | 0.545 | 0.629 | 0.286 | 0.212
CC1(C)CCC(CN2CCN(c3ccc(C(=O)NS(=O)(=O)c4ccc(NCC5CCOCC5)c([N+](=O)[O-])c4)c(Oc4cnc5[nH]ccc5c4)c3)CC2)=C(c2ccc(Cl)cc2)C1 [Venetoclax] + C[C@@H]1COCCN1C2=NC(=NC(=C2)C3(CC3)[S@](=N)(=O)C)C4=C5C=CNC5=NC=C4 [AZD6738] (first compound max 1 µM, 7x7, partner max 10 µM) | 0.92 | 0.681 | 0.769 | 0.528 | 0.425 | 0.823 | 0.83 | 0.418 | 0.75 | 1 | 0.702 | 0.757 | 0.243 | 0.568 | 0.461 | 0.709 | 0.423 | 0.55 | 0.368 | 0.286
